Laboratory results from US12344878B2, “Artificial organelles for enzymatic cofactor reduction” (priority 2020, dated 2025).
Read-outs that look alike come from different tables or passages of the source.

Legend:
[1] = target: T1, Respiratory Complex I (CMI, NADH:ubiquinone oxidoreductase) (Escherichia coli, UniProt P0AFC7+P0AFD4+P31979+P33599); experiment: Complex I proton pumping (ACMA quenching) in CMI proteoliposomes; type: biochemical, E. coli
T1 construct: made in house; host or cells: E. coli overexpression strain ANN0221
Method: (§1) Complex I NADH:DQ oxidoreductase and proton pumping activity were measured simultaneously using a Flexstation 3 (Molecular Devices, Inc.). NADH:DQ oxidoreductase activity was monitored through NADH oxidation by fluorescence spectroscopy (λexictation=340 nm, λemission=455 nm), while proton gradient generation was determined by quenching of ACMA (λexictation=410 nm, λemission=480 nm). The assay was conducted at 28° C. in the corresponding buffer, 25 μL of proteoliposomes were added to 175 μL assay mixture containing 100 μM DQ, 200 μM NADH, 0.2 μM valinomycin, 2.5 μM ACMA and for decoupling and inhibition assays 5 μM CCCP (carbonyl cyanide 3-chlorophenylhydrazone) and 50 μM Piericidin A, respectively. The sample was incubated for 5 min prior to reaction initiation by addition of NADH. When conducting inhibition assays proteoliposomes were incubated for 5 min with Piericidin A before the addition of DQ.

[2] = target: (+)CMI-(+)bR proteoliposomes (Escherichia coli, UniProt P0AFC7+P0AFD4+P31979+P33599); type: biochemical, E. coli (CMI), H. salinarum (bR)
Method: (§2) Photoreduction by CMI:PSII proteoliposomes were routinely performed at 28° C. in 5 mM MES, pH 6.5, 50 mM KCl, 5 mM MgCl2 2 mM CaCl2, 25 µL of proteoliposomes were added to 175 μL assay mixture containing 50 μM DQ, 0.2 μM valinomycin, 2.5 μM ACMA; and for decoupling and inhibition assays: 5 μM CCCP and 100 μM DCMU, respectively. The potassium ionophore, valinomycin, was added to collapse the electrical component of the PMF and generate a higher ΔpH. Without being bound by any theory, the reverse electron transfer activity of CMI is believed to be more dependent on the proton component of the […] than the electrical component of the […]. Saturating white light >2200 μmol photons m^−2 s^−1 was provided by a 100 W Mercury lamp. The light was passed through a 2 L water bath. The reaction was monitored using Flexstation 3 (Molecular Devices, Inc.), NADH concentration was monitored by fluorescence spectroscopy (λexictation=340 nm, λemission=455 nm), while the proton gradient generation was determined by the change in ACMA signal (λexictation=410 nm, λemission=480 nm).
(§3) Liposome preparation, enzyme reconstitution, NAD^+ photoreduction, and proton pumping assays were performed as described above.
In this study, an engineered artificial organelle capable of photoreduction of NAD^+ was created by vectorially integrating bR from H. salinarum and CMI from E. coli into proteoliposomes. The power source for this system is light which activates the proton translocation by bR. As a result, accumulation of H^+ within the lumen creates a proton motive force (PMF). The PMF is requisite to diminish the thermodynamic gap of the standard redox potentials between NADH/NAD^+ and QH2/Q. Reducing the thermodynamic barrier enables CMI to perform reverse electron transfer (RET) from QH2 to NAD^+ [10, 46].
The experiments were initially conducted to determine whether the (+)CMI-(+)bR proteoliposomes could reduce NAD^+ and find suitable assay conditions.

Photosystem II (PSII) = target: T2, Photosystem II (PSII) (Synechocystis sp., UniProt P09192+P16033); experiment: Oxygen evolution assay (Clarke-type electrode); type: biochemical, Synechocystis sp. PCC6803
T2 construct: made in house; host or cells: Synechocystis sp; PCC6803 strain with His-tagged CP47; thylakoid membranes
Method: Oxygen evolution assays were performed using 50 mM MES, pH 6.5, 10 mM NaCl, 5 mM MgCl2, 20 mM CaCl2 using a Clarke-type electrode (Hansatech Instruments, Ltd.). 2 mM ferricyanide and either 300 μM 2,5-dicholor-1,4-benzoquinone (DCBQ) or 50 μM DQ was added as electron acceptor with […] of ChlA of the sample to a final volume of 1.5 mL. The reaction took place at 28° C. and was initiated by red light at 2800 μmol s^−1 m^−2.

CMI:PSII proteoliposomes [3] = tested on: T3, CMI:PSII proteoliposomes; experiment: NAD+ photoreduction assay of CMI:PSII proteoliposomes (NADH fluorescence); type: biochemical, E. coli (CMI), Synechocystis sp. PCC6803 (PSII); details: for Max Rate NAD^+ Photoreduction: 4PSII:1CMI proteoliposomes; for Sum NADH: production plus remaining
T3 construct: made in house; host or cells: CMI from E. coli strain ANN0221; PSII from Synechocystis sp; PCC6803 (His-tagged CP47); co-reconstituted in E. coli lipid liposomes
Method: as §2

CMI:PSII proteoliposomes [4] = tested on: T3, CMI:PSII proteoliposomes; experiment: Proton gradient (ACMA signal) of CMI:PSII proteoliposomes; type: biochemical, E. coli (CMI), Synechocystis sp. PCC6803 (PSII); details: 100 μM DCMU
Method: as §2

[5] = target: T1, Respiratory Complex I (CMI, NADH:ubiquinone oxidoreductase); type: biochemical, E. coli
Method: as §1

[6] = target: T4, bacteriorhodopsin (bR) and CMI proteoliposomes (Escherichia coli, UniProt P0AFC7+P0AFD4+P31979+P33599); type: biochemical, H. salinarum (bR), E. coli (CMI); details: 50 μM Piericidin A
T4 construct: Bacteriorhodopsin from H. salinarum was purified using tangential flow filtration; made in house; host or cells: bR purified from H. salinarum; CMI from E. coli strain ANN0221; co-reconstituted in liposomes
Method: as §3
(§4) The pH-sensitive fluorophore 9-amino-6-chloro-2-methoxyacridine (ACMA) was used to conduct proton pumping assays. The rates of ACMA quenching were measured for CMI bR independently. Because of the non-linear relationship between ACMA quenching and ΔpH [54-55], the rate of ACMA quenching and de-quenching were calculated using the linear region of the ACMA signal, between 40-70% of the baseline.

[7] = tested on: bacteriorhodopsin (bR) and CMI proteoliposomes; type: biochemical, H. salinarum (bR), E. coli (CMI); details: 0.2 μM valinomycin compared with 0.1 μM
Method: as §3, §4

[8] = CMI reconstituted with detergent at 7 mM
[9] = PSII reconstituted with detergent at 7 mM
[10] = CMI reconstituted with detergent at 3.8 mM
[11] = CMI reconstituted with detergent at 18 mM
[12] = CMI reconstituted with detergent at 26 mM
[13] = CMI reconstituted with detergent at 1.8 mM

## N#CC(C#N)=NNc1cccc(Cl)c1 [CCCP, carbonyl cyanide 3-chlorophenylhydrazone]
[1]; incubation with 5 μM CCCP
  change in ACMA fluorescence of CMI proteoliposomes: minimal change in ACMA fluorescence
[2]
  response of NADH production: negative and significant response

## C[C@H](CCC(=O)NCCC[N+](C)(C)CCCS(=O)(=O)[O-])[C@H]1CC[C@H]2[C@@H]3[C@H](O)C[C@@H]4C[C@H](O)CC[C@]4(C)[C@H]3C[C@H](O)[C@]12C [CHAPS, 3-[(3-cholamidopropyl)dimethylammonio]-1-propanesulfonate]
[1]; CMI reconstituted with detergent at 3.0 mM
  ACMA Fluorescence decrease: 0.58%
[1]; [8]
  ACMA Fluorescence decrease: 74.54%
Photosystem II (PSII); PSII reconstituted with detergent at 3.0 mM
  O2 Evolution (mean ± S.D.): 178.08 ± 9.91 umol O2 hr^−1 ug ChIA
Photosystem II (PSII); [9]
  O2 Evolution (mean ± S.D.): 509.24 ± 256.84 umol O2 hr^−1 ug ChIA

## CN(C)C(=O)Nc1ccc(Cl)c(Cl)c1 [DCMU, 3-(3,4-dicholorophenyl)-1,1-dimethylurea]
Photosystem II (PSII); 100 μM DCMU (FIG. 10)
  inhibition of isolated PSII: 70%
CMI:PSII proteoliposomes [3]; 100 μM DCMU inhibited sample
  average rate of NADH production after removal of light: −170.65±2.26 nmol min^−1 mg CMI^−1
CMI:PSII proteoliposomes [3]; 100 μM DCMU, illumination minus post illumination rates
  rate of NADH production of inhibited sample relative to non-inhibited sample: 39.05%±7.64
CMI:PSII proteoliposomes [3]; proteoliposomes incubated 5 minutes with 100 μM DCMU
  maximum rate of NADH production under illumination: 6.44±24.97 nmol min^−1 mg CMI^−1
CMI:PSII proteoliposomes [4]
  ACMA signal increase relative to non-inhibited sample: approximately 60%

## CCCCCCCCCCCCO[C@@H]1O[C@H](CO)[C@@H](O[C@H]2O[C@H](CO)[C@@H](O)[C@H](O)[C@H]2O)[C@H](O)[C@H]1O [DDM, n-dodecyl-β-D-maltopyranoside]
[1]; [10]
  ACMA Fluorescence decrease: 1.46%
[1]; [8]
  ACMA Fluorescence decrease: 0.32%
[5]; [10]
  NADH:DQ oxidoreductase activity: 13.43 umol min^−1 mg CMI^−1
[5]; [8]
  NADH:DQ oxidoreductase activity: 0.76 umol min^−1 mg CMI^−1
Photosystem II (PSII); PSII reconstituted with detergent at 3.8 mM
  O2 Evolution (mean ± S.D.): 565.87 ± 25.19 umol O2 hr^−1 ug ChIA
Photosystem II (PSII); PSII reconstituted with detergent at 6.8 mM
  O2 Evolution (mean ± S.D.): 396.55 ± 69.76 umol O2 hr^−1 ug ChIA

## NC(=O)C1=CN([C@@H]2O[C@H](COP(=O)(O)OP(=O)(O)OC[C@H]3O[C@@H](n4cnc5c(N)ncnc54)[C@H](O)[C@@H]3O)[C@@H](O)[C@H]2O)C=CC1 [NADH]
CMI:PSII proteoliposomes [3]; 100 μM NADH injected
  Max Production of NADH: 8.04 µM
  NADH remaining prior to photoreduction: 2.05 µM
  Max Rate NAD^+ Photoreduction: 132.30 nmol min^−1 mg CMI^−1
  Sum NADH: 10.08 µM
CMI:PSII proteoliposomes [3]; 200 μM NADH injected
  Max Production of NADH: 9.10 µM
  NADH remaining prior to photoreduction: 4.10 µM
  Max Rate NAD^+ Photoreduction: 213.32 nmol min^−1 mg CMI^−1
  Sum NADH: 13.20 µM
CMI:PSII proteoliposomes [3]; 300 μM NADH injected
  Max Production of NADH: 6.48 µM
  NADH remaining prior to photoreduction: 8.19 µM
  Max Rate NAD^+ Photoreduction: 178.71 nmol min^−1 mg CMI^−1
  Sum NADH: 14.67 µM
CMI:PSII proteoliposomes [3]; 400 μM NADH injected
  Max Production of NADH: 1.53 µM
  NADH remaining prior to photoreduction: 13.41 µM
  Max Rate NAD^+ Photoreduction: 57.45 nmol min^−1 mg CMI^−1
  Sum NADH: 14.94 µM

## CCCCCCCCO[C@@H]1O[C@H](CO)[C@@H](O)[C@H](O)[C@H]1O [OG, n-octyl-β-D-glucoside]
[1]; [11]
  ACMA Fluorescence decrease: 0.71%
[1]; [12]
  ACMA Fluorescence decrease: −0.16%
[5]; [11]
  NADH:DQ oxidoreductase activity: 5.24 umol min^−1 mg CMI^−1
[5]; [12]
  NADH:DQ oxidoreductase activity: 8.95 umol min^−1 mg CMI^−1
Photosystem II (PSII); PSII reconstituted with detergent at 18 mM
  O2 Evolution (mean ± S.D.): 306.95 ± 44.24 umol O2 hr^−1 ug ChIA
Photosystem II (PSII); PSII reconstituted with detergent at 26 mM
  O2 Evolution (mean ± S.D.): 481.01 ± 192.16 umol O2 hr^−1 ug ChIA

## C/C=C(\C)[C@H](O)[C@H](C)/C=C(C)/C=C/C/C(C)=C/Cc1nc(OC)c(OC)c(O)c1C [Piericidin A]
[5]; 50 μM Piericidin A
  inhibition of NADH:DQ oxidoreductase specific activity of CMI proteoliposomes: > 95%
[5]; 50 μM Piericidin A, (+)CMI-(−)bR proteoliposomes (FIG. 13)
  inhibition of NADH oxidation by CMI: > 95%
[2]; 50 μM Piericidin A
  effect on NAD^+ reductase rates: significantly increased
[2]; 50 μM Piericidin A, 0.0 mM DTT
  NAD^+ reductase rate relative to samples with no Piericidin A: ~3 times
[2]; 50 μM Piericidin A, 1.0 mM DTT
  NAD^+ reductase rate relative to samples with no Piericidin A: ~4 times
[2]; after 35 minutes, Piericidin A present
  reduction of the rate of NADH produced: 95%
[6]; 0.0 mM DTT
  rate of ACMA signal increase during photoreduction: 3.96±0.64 ACMA % min^−1
[6]; 1.0 mM DTT
  rate of ACMA signal increase during photoreduction: 3.15±0.94 ACMA % min^−1

## CC(C)[C@@H]1NC(=O)[C@H](C)OC(=O)[C@@H](C(C)C)NC(=O)[C@@H](C(C)C)OC(=O)[C@H](C(C)C)NC(=O)[C@H](C)OC(=O)[C@@H](C(C)C)NC(=O)[C@@H](C(C)C)OC(=O)[C@H](C(C)C)NC(=O)[C@H](C)OC(=O)[C@@H](C(C)C)NC(=O)[C@@H](C(C)C)OC1=O [valinomycin]
[7]
  ACMA quenching: quenched the ACMA more than 0.1 μM

## polyethylene glycol p-(1,1,3,3-tetramethylbutyl)-phenyl ether [Triton X-100 ™]
[1]; [13]
  ACMA Fluorescence decrease: −2.75%
[1]; [8]
  ACMA Fluorescence decrease: −4.90%
[5]; [13]
  NADH:DQ oxidoreductase activity: −0.00 umol min^−1 mg CMI^−1
[5]; [8]
  NADH:DQ oxidoreductase activity: 9.05 umol min^−1 mg CMI^−1
Photosystem II (PSII); PSII reconstituted with detergent at 1.8 mM
  O2 Evolution (mean ± S.D.): 530.72 ± 2.53 umol O2 hr^−1 ug ChIA
Photosystem II (PSII); [9]
  O2 Evolution (mean ± S.D.): 218.69 ± 67.01 umol O2 hr^−1 ug ChIA
